Test results taken from patent US10494384B2, “Urea peptoid boric acid compound, pharmaceutical composition thereof, preparation method therefor, and uses thereof” (Peking University, priority 2015, dated 2019).
Where two headings read alike, the source gives them in different places.

Assays:
MCF-7, breast cancer = experiment: preliminary anti-tumor screening in vitro, SRB method; format: cell-based; settings: Homo sapiens, read-out: inhibition rates (%) MCF-7; for inhibition at 0.1 µM: MCF7, 0.1 μM; for inhibition at 1 µM: MCF7, 1 μM; for inhibition at 10 µM: MCF7, 10 μM
Outline: (§1)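 Inhibition rates measured at 0.1, 1 or 10 μM compound; cell growth read by MTT for Hela, SRB for BGC-823, MCF-7 and A549.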

A549, human lung cancer = experiment: as above; format: cell-based; settings: read-out: inhibition rates (%) A549
Outline: as §1

BGC-823, liver cancer = experiment: as above; format: cell-based; settings: Homo sapiens, read-out: inhibition rates (%) BGC-823
Outline: as §1

[1] = molecular target: T1, 20S proteasome extracted from rat liver (CT-L) (Rattus norvegicus, UniProt P18421+P28075); experiment: inhibition of 20S proteasome, CT-L activity (fluorescent peptide); format: biochemical; settings: for inhibition at 0.2 µM / inhibition at 2 µM / inhibition at 20 µM: rat liver 20S proteasome, 37° C., 1 h, read-out: inhibition rates (%) CT-L
T1 construct: 20S proteasome extracted from rat liver; from tissue; host or cells: rat liver
Procedure: (§2) 1 μg of 20S proteasome extracted from rat liver was incubated with a 100 μL solution containing various concentrations of the present compounds, 50 μM fluorescent peptides and 20 mM Tris-HCl at 37° C. for 1 h, respectively. […] 0.1% DMSO was used as a solvent control. Compared with the fluorescence of solvent control, an inhibition rate or IC50 value was calculated.

[2] = tested on: Hela, human cervical carcinoma; experiment: preliminary anti-tumor screening in vitro, MTT method; format: cell-based; settings: read-out: inhibition rates (%) Hela
Outline: as §1

[3] = molecular target: T2, 20S proteasome extracted from rat liver (T-L) (Rattus norvegicus, UniProt P40112+Q9JHW0); experiment: inhibition of 20S proteasome, T-L activity (fluorescent peptide); format: biochemical; settings: for inhibition at 0.2 µM / inhibition at 2 µM / inhibition at 20 µM: rat liver 20S proteasome, 37° C., 1 h, read-out: inhibition rates (%) T-L
T2 construct: 20S proteasome extracted from rat liver; from tissue; host or cells: rat liver
Procedure: as §2

[4] = molecular target: T3, 20S proteasome extracted from rat liver (PGPH) (Rattus norvegicus, UniProt P28073+Q9JHW0); experiment: inhibition of 20S proteasome, PGPH activity (fluorescent peptide); format: biochemical; settings: for inhibition at 0.2 µM / inhibition at 2 µM / inhibition at 20 µM: rat liver 20S proteasome, 37° C., 1 h, read-out: inhibition rates (%) PGPH
T3 construct: 20S proteasome extracted from rat liver; from tissue; host or cells: rat liver
Procedure: as §2

[5] = tested on: MGC803 stomach cancer cells; experiment: anti-tumor activity in vitro (IC50), MTT; format: cell-based; settings: Homo sapiens, MGC-803, MTT, 72 h
Procedure: (§3) Cancer cells were cultured in vitro. When cell growth reached logarithmic phase, the cells were collected and centrifuged at 1000 rpm for 5 min, before the supernate was removed and the cells were suspended in a moderate amount of medium, and then the concentration of cell was adjusted to 3.5×10^4/mL. The cell suspension was added into a 96-well plate with 100 μL per well and cultured in a cell incubator (37° C., 5% CO2) for 24 h. Then test drugs of different end concentrations were added, and the negative control group was added DMSO (end concentration was 0.5%), while each group afforded three repetitive holes. After cultivation for another 72 h in the cell incubator, a solution containing 5 mg/ml MTT (20 μL) was added into each well and the 96-well plate was placed at 37° C. for 3 h. To each well was added 150 μL DMSO, after oscillation in a shaking table for 5 min, the optical density (OD) values at 492 nm/620 nm were measured. IC50 values were calculated by Prism Graphpad statistical software.

HepG2 liver cancer cells = experiment: anti-tumor activity in vitro (IC50), MTT; format: cell-based; settings: Homo sapiens, 72 h
Procedure: as §3

Hela = experiment: anti-tumor activity in vitro (IC50), MTT; format: cell-based; settings: Homo sapiens, 72 h
Procedure: as §3

[6] = stomach cancer cells, read-out: IC50 (μM) MGC803
[7] = liver cancer cells, read-out: IC50 (μM) HepG2

SMILES	inhibition at 0.2 µM [1] [%]	inhibition at 2 µM [1] [%]	inhibition at 20 µM [1] [%]	inhibition at 0.2 µM [3] [%]	inhibition at 2 µM [3] [%]	inhibition at 20 µM [3] [%]	inhibition at 0.2 µM [4] [%]	inhibition at 2 µM [4] [%]	inhibition at 0.1 µM (MCF-7, breast cancer) [%]	inhibition at 1 µM (MCF-7, breast cancer) [%]	inhibition at 10 µM (MCF-7, breast cancer) [%]	inhibition at 0.1 µM (A549, human lung cancer) [%]	inhibition at 1 µM (A549, human lung cancer) [%]	inhibition at 10 µM (A549, human lung cancer) [%]	inhibition at 0.1 µM (BGC-823, liver cancer) [%]	inhibition at 1 µM (BGC-823, liver cancer) [%]	inhibition at 10 µM (BGC-823, liver cancer) [%]	inhibition at 0.1 µM [2] [%]	inhibition at 1 µM [2] [%]	inhibition at 10 µM [2] [%]	further results
CC(C)C[C@H](NC(=O)N[C@@H](Cc1ccccc1)C(=O)Nc1cccc(OCc2ccccc2)c1)B1OC2C[C@H]3C[C@H](C3(C)C)[C@@]2(C)O1 (stereo partly drawn) [Example 5, N-L-leucine borate pinanediol ester-N′-(3-benzyloxy-phenylcarbamoyl)-L-phenylalanine-urea]	-17.8	-15.1	-3.13	-5.23	-1.52	0.968	2.67	3.15	6.37	8.84	8.44	3.25	10.3	30.3	5.47	3.19	8.66	7.42	10.3	21.8	inhibition at 20 µM [4]: 9.71%; melting point: 78 to 80 °C
CC(C)C[C@H](NC(=O)N[C@@H](Cc1ccccc1)C(=O)Nc1cnccn1)B1OC2C[C@H]3C[C@H](C3(C)C)[C@@]2(C)O1 (stereo partly drawn) [Example 7, N-L-leucine borate pinanediol ester-N′-(pyrazin-2-ylcarbamoyl)-L-phenylalanine-urea]	23.4	47.2	82.6	-16.5	-12.6	25.3	5.76	1.95	4.81	7.4	11.7	-1.53	2.54	15.5	2.21	0.62	6.88	0.48	5.11	14.9	inhibition at 20 µM [4]: 0.485%; melting point: 93 to 95 °C
CC(C)C[C@H](NC(=O)[C@H](Cc1ccccc1)NC(=O)N1CCc2ccccc2C1)B(O)O [Example 28, N-L-phenylalanyl-L-leucine borate-N′-1,2,3,4-tetrahydroisoquinoline-urea]	–	–	–	–	–	–	–	–	–	–	–	–	–	–	–	–	–	–	–	–	IC50 [3]: 2.38 µM; IC50 [4]: 0.02 µM; IC50 (Hela): 0.532 µM; IC50 ([5]; read-out: IC50 MGC803): 0.00498 µM; IC50 [5, 6]: 0.00396 µM; IC50 (HepG2 liver cancer cells; read-out: IC50 HepG2): 0.00838 µM; IC50 (HepG2 liver cancer cells; [7]): 0.0194 µM
CC(C)C[C@H](NC(=O)[C@H](Cc1ccccc1)NC(=O)NCc1ccc(F)c(F)c1)B(O)O [Example 35, N-L-phenylalanyl-L-leucine borate-N′-3,4-difluoro-benzylamine-urea]	–	–	–	–	–	–	–	–	–	–	–	–	–	–	–	–	–	–	–	–	IC50 [1]: 0.002 µM; IC50 [3]: 0.34 µM; IC50 [4]: 0.11 µM; IC50 (Hela): 0.255 µM; IC50 ([5]; read-out: IC50 MGC803): 0.0167 µM; IC50 [5, 6]: 0.0067 µM; IC50 (HepG2 liver cancer cells; read-out: IC50 HepG2): 0.019 µM; IC50 (HepG2 liver cancer cells; [7]): 0.0388 µM

Now from value to molecule, other results behind:

inhibition at 0.2 µM [1] [%]	inhibition at 2 µM [1] [%]	inhibition at 20 µM [1] [%]	inhibition at 0.2 µM [3] [%]	inhibition at 2 µM [3] [%]	inhibition at 20 µM [3] [%]	inhibition at 0.2 µM [4] [%]	inhibition at 2 µM [4] [%]	SMILES	inhibition at 0.1 µM (MCF-7, breast cancer) [%]	inhibition at 1 µM (MCF-7, breast cancer) [%]	inhibition at 10 µM (MCF-7, breast cancer) [%]	inhibition at 0.1 µM (A549, human lung cancer) [%]	inhibition at 1 µM (A549, human lung cancer) [%]	inhibition at 10 µM (A549, human lung cancer) [%]	inhibition at 0.1 µM (BGC-823, liver cancer) [%]	inhibition at 1 µM (BGC-823, liver cancer) [%]	inhibition at 10 µM (BGC-823, liver cancer) [%]	inhibition at 0.1 µM [2] [%]	inhibition at 1 µM [2] [%]	inhibition at 10 µM [2] [%]	further results
82.1	96.1	98.9	5.04	57.8	88.4	6.46	84.6	CC(C)C[C@H](NC(=O)[C@H](Cc1ccccc1)NC(=O)NCc1ccccc1)B(O)O [Example 14, N-L-phenylalanyl-L-leucine borate-N′-benzylamine-urea]	51.9	67.8	72.2	2.67	13	33.3	12.9	33.5	38.2	40.3	43.2	53.5	inhibition at 20 µM [4]: 97%; IC50 [5, 6]: 0.0188 µM; IC50 (HepG2 liver cancer cells; [7]): 0.0873 µM
86.3	95.9	98.3	5.72	53.5	90.4	8.45	89.4	COc1ccc(CNC(=O)N[C@@H](Cc2ccccc2)C(=O)N[C@@H](CC(C)C)B(O)O)cc1 [Example 15, N-L-phenylalanyl-L-leucine borate-N′-(p-methoxy-benzylamine)-urea]	47.7	65	73.8	2.63	11	31.1	7.38	32.6	38.4	39.3	44.5	51.8	inhibition at 20 µM [4]: 96.8%; IC50 [5, 6]: 0.036 µM; IC50 (HepG2 liver cancer cells; [7]): 0.25 µM
-12.2	44.9	76.8	1.54	9	21.5	1.67	6.26	COc1ccc(NC(=O)[C@H](Cc2ccccc2)NC(=O)N[C@@H](CC(C)C)B2OC3C[C@H]4C[C@H](C4(C)C)[C@@]3(C)O2)cc1 (stereo partly drawn) [Example 9, N-L-leucine borate pinanediol ester-N′-(p-methoxy-phenylcarbamoyl)-L-phenylalanine-urea]	6.66	11.7	13.8	4.05	10.3	36.2	8.33	7.84	14.7	11.8	14.3	32.1	inhibition at 20 µM [4]: 34.1%; melting point: 78 to 80 °C
91.7	97.3	98.3	18.2	69.1	90.7	16.9	82.3	COc1ccc(OC)c(CNC(=O)N[C@@H](Cc2ccccc2)C(=O)N[C@@H](CC(C)C)B2OC3CC4CC(C4(C)C)[C@]3(C)O2)c1 (stereo partly drawn) [Example 19, N-L-phenylalanyl-L-leucine borate pinanediol ester-N′-(2,5-dimethoxy-benzylamine)-urea]	23.4	38.1	61.7	53.1	65.6	76.1	43.7	46.6	57.2	39.8	44	55	inhibition at 20 µM [4]: 97.2%; melting point: 88 to 90 °C
